Data: paper PMC3416681, “The orthosteric agonist 2-chloro-5-hydroxyphenylglycine activates mGluR5 and mGluR1 with similar efficacy and potency” (2012)

How the values were obtained:
[1] = target: T1, mGluR5b (Rattus norvegicus, UniProt P31424); experiment: whole-cell patch clamp, calcium current inhibition in SCG neurons expressing the receptor; format: cell-based
T1 construct: gene Grm5; splice variant mGluR5b

[2] = target: T2, mGluR1a (Rattus norvegicus, UniProt P23385); experiment: as above; format: cell-based
T2 construct: gene Grm1; splice variant mGluR1a (untagged and N-terminally myc-tagged, data combined)
T2 sequence (P23385 19-1199): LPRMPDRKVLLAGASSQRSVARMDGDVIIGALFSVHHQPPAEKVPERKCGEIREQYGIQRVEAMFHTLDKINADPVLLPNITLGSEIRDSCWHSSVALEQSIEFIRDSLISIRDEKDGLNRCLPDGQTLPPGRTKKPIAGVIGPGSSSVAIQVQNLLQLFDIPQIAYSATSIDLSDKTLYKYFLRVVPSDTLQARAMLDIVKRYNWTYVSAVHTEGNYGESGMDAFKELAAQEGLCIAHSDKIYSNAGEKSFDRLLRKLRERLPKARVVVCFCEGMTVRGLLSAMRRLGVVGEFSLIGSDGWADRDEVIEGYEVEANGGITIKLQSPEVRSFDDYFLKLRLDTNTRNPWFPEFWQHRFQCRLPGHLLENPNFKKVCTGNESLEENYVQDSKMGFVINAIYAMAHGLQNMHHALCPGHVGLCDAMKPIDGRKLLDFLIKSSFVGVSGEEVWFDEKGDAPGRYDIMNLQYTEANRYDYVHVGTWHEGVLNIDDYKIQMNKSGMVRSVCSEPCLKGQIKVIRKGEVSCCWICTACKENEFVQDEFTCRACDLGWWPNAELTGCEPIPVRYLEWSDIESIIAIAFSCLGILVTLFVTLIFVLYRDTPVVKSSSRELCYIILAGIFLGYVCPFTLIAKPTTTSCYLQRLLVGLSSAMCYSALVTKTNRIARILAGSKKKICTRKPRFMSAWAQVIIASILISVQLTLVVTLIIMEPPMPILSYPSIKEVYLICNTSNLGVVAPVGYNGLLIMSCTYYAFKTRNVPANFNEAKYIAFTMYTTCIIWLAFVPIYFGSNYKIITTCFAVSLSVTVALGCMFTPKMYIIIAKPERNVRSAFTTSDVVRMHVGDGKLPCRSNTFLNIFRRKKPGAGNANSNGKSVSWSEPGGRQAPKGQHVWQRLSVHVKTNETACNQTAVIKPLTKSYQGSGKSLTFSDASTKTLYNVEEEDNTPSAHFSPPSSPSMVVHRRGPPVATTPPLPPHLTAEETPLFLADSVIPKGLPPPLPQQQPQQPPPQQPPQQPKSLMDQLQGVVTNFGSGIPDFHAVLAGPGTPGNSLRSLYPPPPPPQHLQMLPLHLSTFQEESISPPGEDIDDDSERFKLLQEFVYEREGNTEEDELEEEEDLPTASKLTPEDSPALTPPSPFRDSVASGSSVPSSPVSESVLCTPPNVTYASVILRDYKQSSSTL

T1 sequence (P31424 21-1203): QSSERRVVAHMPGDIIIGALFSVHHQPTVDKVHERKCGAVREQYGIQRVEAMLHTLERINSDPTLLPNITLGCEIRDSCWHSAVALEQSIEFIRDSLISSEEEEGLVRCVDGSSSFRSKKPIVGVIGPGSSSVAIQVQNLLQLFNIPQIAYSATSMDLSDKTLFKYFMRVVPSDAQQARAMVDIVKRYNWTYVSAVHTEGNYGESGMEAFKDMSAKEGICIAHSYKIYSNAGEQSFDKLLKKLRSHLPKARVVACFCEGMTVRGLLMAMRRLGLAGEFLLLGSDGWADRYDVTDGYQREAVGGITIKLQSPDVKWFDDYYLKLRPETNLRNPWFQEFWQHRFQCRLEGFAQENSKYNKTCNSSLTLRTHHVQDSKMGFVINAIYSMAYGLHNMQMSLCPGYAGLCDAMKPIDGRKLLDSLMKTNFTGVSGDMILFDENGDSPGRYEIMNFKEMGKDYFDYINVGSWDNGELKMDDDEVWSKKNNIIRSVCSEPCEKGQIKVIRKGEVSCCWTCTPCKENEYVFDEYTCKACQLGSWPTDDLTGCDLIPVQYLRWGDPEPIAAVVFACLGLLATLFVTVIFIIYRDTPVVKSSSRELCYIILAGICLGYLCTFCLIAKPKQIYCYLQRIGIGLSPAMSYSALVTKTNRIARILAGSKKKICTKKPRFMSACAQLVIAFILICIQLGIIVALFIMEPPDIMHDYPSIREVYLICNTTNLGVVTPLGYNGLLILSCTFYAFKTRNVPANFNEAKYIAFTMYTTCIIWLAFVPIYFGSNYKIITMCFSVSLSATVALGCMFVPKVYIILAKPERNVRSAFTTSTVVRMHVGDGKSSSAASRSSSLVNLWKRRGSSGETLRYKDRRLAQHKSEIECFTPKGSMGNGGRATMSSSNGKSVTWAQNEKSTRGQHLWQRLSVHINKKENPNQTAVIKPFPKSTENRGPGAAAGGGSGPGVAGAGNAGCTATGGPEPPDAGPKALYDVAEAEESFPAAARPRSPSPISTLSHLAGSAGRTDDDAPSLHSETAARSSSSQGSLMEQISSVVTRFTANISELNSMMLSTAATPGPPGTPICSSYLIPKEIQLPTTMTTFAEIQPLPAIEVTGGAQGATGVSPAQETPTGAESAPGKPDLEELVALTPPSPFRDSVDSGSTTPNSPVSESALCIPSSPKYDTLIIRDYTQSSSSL

EC50 [1]: 57 µM | EC50 [2]: 80 µM
Structure (SMILES): NC(C(=O)O)c1cc(O)ccc1Cl (racemic) [CHPG, 2-Chloro-5-hydroxyphenylglycine]
